Test results taken from ChEMBL document CHEMBL3407349, “The discovery of Polo-like kinase 4 inhibitors: identification of (1R,2S).2-(3-((E).4-(((cis).2,6-dimethylmorpholino)methyl)styryl). 1H.indazol-6-yl)-5'-methoxyspiro[cyclopropane-1,3'-indolin]-2'-one (CFI-400945) as a potent, orally active antitumor agent” (J Med Chem, 2015).

Key:
[1] = Half life in beagle dog at 1 mg/kg, iv; assay type: ADME, organism-based, Canis lupus familiaris; set-up: dose 1 mg/kg, route intravenous; details: in vivo
Cytochrome P450 3A4 [2] = molecular target: T1, Cytochrome P450 3A4 (Homo sapiens, UniProt P08684); assay: Inhibition of CYP3A4 (unknown origin) using BFC as substrate by fluorescence assay
T1 sequence (P08684 whole entry): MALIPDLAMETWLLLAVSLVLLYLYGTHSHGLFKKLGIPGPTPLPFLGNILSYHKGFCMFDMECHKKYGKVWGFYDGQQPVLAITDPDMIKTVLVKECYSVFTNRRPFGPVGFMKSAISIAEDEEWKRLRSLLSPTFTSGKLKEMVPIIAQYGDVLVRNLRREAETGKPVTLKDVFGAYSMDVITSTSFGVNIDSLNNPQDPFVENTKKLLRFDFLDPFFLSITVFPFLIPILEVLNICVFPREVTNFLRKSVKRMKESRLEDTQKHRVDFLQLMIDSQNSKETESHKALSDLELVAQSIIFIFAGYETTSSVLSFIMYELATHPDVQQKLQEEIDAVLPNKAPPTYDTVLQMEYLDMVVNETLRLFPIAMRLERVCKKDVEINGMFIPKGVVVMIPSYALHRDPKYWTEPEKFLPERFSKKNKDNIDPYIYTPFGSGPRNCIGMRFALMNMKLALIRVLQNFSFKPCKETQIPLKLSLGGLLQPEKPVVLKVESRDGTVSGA

[3] = Oral bioavailability in beagle dog at 5 mg/kg; assay type: ADME, organism-based, Canis lupus familiaris; details: in vivo
Canis familiaris = assay: Clearance in beagle dog at 1 mg/kg, iv; assay type: ADME, organism-based, Canis lupus familiaris; set-up: dose 1 mg/kg, route intravenous; details: in vivo
Rattus norvegicus = assay: Clearance in Sprague-Dawley rat at 1 mg/kg, iv; assay type: ADME, organism-based; set-up: dose 1 mg/kg, route intravenous; details: in vivo
MCF7 = assay: Growth inhibition of human MCF7 cells after 5 days by SRB assay; assay type: functional
[4] = AUC(infinity) in Sprague-Dawley rat at 1 mg/kg, iv; assay type: ADME, organism-based; set-up: time infinity, dose 1 mg/kg, route intravenous; details: plasma
[5] = AUC(infinity) in Sprague-Dawley rat at 5 mg/kg, po; assay type: ADME, organism-based; set-up: dose 5 mg/kg, route oral, time infinity; details: plasma
Cytochrome P450 1A2 = molecular target: T2, Cytochrome P450 1A2 (Homo sapiens, UniProt P05177); assay: Inhibition of CYP1A2 (unknown origin) by fluorescence assay; assay type: ADME
T2 sequence (P05177 whole entry): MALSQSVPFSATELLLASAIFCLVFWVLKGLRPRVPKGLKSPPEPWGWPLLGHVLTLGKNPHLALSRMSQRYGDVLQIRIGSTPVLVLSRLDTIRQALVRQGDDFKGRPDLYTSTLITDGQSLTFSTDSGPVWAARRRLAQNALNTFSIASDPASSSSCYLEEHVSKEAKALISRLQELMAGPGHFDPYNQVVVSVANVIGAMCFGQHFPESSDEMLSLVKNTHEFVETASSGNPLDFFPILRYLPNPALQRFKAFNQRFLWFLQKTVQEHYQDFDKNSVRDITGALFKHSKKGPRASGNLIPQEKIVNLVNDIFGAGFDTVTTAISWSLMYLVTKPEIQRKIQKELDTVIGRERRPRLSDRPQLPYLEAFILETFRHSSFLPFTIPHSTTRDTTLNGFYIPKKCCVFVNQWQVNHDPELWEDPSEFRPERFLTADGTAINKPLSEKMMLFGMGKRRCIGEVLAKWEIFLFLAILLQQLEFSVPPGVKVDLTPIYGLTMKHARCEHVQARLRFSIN

HCC1954 = assay: Growth inhibition of human HCC1954 cells after 5 days by SRB assay; assay type: functional
[6] = AUC(infinity) in beagle dog at 1 mg/kg, iv; assay type: ADME, organism-based, Canis lupus familiaris; set-up: time infinity, dose 1 mg/kg, route intravenous; details: plasma
[7] = Half life in mouse liver microsomes
MDA-MB-231 = assay: Growth inhibition of human MDA-MB-231 cells after 5 days by SRB assay; assay type: functional
[8] = AUC(infinity) in beagle dog at 5 mg/kg, po; assay type: ADME, organism-based, Canis lupus familiaris; set-up: time infinity, dose 5 mg/kg, route oral; details: plasma
[9] = Half life in Sprague-Dawley rat at 1 mg/kg, iv; assay type: ADME, organism-based; set-up: dose 1 mg/kg, route intravenous; details: in vivo
Cytochrome P450 3A4 [10] = molecular target: T1, Cytochrome P450 3A4; assay: Inhibition of CYP3A4 (unknown origin) using DBF as substrate by fluorescence assay
[11] = Growth inhibition of human HMEC cells after 5 days by SRB assay; assay type: cell-based; details: HMEC cells
[12] = Half life in rat liver microsomes
Cytochrome P450 2C19 = Cytochrome P450 2C19 (Homo sapiens, UniProt P33261); assay: Inhibition of CYP2C19 (unknown origin) by fluorescence assay
Cytochrome P450 2C19, sequence (P33261 whole entry): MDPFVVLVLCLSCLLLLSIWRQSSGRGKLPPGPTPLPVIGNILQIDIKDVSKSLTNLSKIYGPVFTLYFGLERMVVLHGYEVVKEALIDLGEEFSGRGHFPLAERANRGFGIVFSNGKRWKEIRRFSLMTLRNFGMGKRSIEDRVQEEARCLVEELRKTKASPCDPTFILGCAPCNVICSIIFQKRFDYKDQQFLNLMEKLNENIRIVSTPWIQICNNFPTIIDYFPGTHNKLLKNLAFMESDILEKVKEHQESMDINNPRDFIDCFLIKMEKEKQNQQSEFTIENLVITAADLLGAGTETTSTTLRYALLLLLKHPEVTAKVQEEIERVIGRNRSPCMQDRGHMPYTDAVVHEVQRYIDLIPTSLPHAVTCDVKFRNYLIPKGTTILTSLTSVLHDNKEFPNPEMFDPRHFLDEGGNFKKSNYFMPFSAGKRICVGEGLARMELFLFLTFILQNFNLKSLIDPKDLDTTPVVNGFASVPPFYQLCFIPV

[13] = Half life in human liver microsomes
[14] = Half life in dog liver microsomes
[15] = AUC in athymic CD1 nude mouse at 25 mg/kg, po by LC/MS/MS analysis; assay type: ADME, organism-based; set-up: dose 25 mg/kg, route oral; details: plasma
Cytochrome P450 2C9 = Cytochrome P450 2C9 (Homo sapiens, UniProt P11712); assay: Inhibition of CYP2C9 (unknown origin) by fluorescence assay
Cytochrome P450 2C9, sequence (P11712 whole entry): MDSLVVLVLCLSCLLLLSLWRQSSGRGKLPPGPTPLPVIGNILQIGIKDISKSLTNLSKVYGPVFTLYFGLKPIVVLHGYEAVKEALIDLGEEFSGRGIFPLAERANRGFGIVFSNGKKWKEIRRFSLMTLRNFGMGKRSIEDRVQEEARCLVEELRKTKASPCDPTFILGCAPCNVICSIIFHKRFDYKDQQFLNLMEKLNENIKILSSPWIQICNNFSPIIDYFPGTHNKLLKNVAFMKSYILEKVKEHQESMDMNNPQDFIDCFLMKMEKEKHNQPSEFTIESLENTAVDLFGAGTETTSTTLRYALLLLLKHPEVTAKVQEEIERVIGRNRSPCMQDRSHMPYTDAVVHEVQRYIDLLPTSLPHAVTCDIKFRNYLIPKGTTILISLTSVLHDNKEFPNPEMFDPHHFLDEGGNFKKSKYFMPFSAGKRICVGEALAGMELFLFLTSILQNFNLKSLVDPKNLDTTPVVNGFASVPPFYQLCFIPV

MDA-MB-468 = assay: Growth inhibition of human MDA-MB-468 cells after 5 days by SRB assay; assay type: functional
Cytochrome P450 2D6 = Cytochrome P450 2D6 (Homo sapiens, UniProt P10635); assay: Inhibition of CYP2D6 (unknown origin) by fluorescence assay; assay type: ADME
Cytochrome P450 2D6, sequence (P10635 whole entry): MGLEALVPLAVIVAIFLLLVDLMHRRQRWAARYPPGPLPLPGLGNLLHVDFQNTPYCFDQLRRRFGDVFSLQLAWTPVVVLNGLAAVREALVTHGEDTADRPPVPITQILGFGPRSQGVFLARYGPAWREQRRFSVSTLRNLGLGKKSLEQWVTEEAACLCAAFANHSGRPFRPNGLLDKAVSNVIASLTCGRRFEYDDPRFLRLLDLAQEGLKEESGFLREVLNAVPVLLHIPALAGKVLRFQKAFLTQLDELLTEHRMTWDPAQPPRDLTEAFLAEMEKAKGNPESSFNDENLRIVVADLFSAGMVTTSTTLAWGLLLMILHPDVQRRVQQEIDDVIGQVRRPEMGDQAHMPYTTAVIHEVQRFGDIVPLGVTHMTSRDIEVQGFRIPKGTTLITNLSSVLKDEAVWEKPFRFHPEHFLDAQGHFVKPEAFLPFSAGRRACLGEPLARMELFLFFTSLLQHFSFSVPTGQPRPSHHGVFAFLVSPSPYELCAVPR

[16] = Cmax in athymic CD1 nude mouse at 25 mg/kg, po by LC/MS/MS analysis; assay type: ADME, organism-based; set-up: dose 25 mg/kg, route oral; details: in vivo
[17] = Oral bioavailability in Sprague-Dawley rat at 5 mg/kg; assay type: ADME, organism-based; details: in vivo
[18] = molecular target: T3, Serine/threonine-protein kinase PLK4 (Homo sapiens, UniProt O00444); assay: Inhibition of PLK4 (unknown origin) by ELISA
T3 sequence (O00444 whole entry): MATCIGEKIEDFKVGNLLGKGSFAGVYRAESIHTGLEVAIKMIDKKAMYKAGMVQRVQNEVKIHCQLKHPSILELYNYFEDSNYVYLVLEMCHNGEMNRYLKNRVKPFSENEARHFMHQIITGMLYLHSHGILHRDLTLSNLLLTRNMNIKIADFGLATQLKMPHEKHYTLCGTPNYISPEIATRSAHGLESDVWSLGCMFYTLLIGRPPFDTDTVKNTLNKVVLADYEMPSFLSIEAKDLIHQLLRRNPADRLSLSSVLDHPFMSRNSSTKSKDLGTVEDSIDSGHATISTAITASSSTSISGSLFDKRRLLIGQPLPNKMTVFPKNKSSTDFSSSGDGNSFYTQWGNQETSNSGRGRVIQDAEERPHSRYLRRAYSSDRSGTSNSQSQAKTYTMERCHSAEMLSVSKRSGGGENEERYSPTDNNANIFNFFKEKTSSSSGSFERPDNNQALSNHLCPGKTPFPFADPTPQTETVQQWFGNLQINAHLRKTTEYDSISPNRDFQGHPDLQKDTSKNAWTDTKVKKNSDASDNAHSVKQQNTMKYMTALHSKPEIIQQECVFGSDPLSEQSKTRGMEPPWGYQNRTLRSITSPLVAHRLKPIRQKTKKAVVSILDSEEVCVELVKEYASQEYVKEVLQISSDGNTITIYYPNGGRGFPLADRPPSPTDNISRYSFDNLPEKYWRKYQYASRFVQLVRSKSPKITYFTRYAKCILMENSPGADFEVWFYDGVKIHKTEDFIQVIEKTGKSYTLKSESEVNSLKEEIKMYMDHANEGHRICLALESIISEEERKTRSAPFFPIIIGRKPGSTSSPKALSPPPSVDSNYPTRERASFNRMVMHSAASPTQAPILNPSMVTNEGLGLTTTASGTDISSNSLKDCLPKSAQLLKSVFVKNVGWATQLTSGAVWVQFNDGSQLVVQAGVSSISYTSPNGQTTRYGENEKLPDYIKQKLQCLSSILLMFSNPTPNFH

[19] = Homo sapiens, MDA-MB-231, 120 h
[20] = Homo sapiens, MDA-MB-468, 120 h

SMILES | half-life [1] | IC50 (Cytochrome P450 3A4 [2]) | bioavailability [3] | clearance (Canis familiaris) | GI50 (MCF7; Homo sapiens, MCF7, 120 h) | inhibition (INH) (Cytochrome P450 1A2) | GI50 (HCC1954; Homo sapiens, HCC1954, 120 h) | half-life ([7]; liver microsomes) | GI50 (MDA-MB-231; [19]) | IC50 (Cytochrome P450 3A4 [10]) | half-life ([12]; liver microsomes) | IC50 (Cytochrome P450 2C19) | half-life ([13]; liver microsomes) | half-life ([14]; liver microsomes) | AUC [15] | IC50 (Cytochrome P450 2C9) | GI50 (MDA-MB-468; [20]) | inhibition (INH) (Cytochrome P450 2D6) | Cmax [16] | GI50 at 120 h [11] | also measured
COc1ccc2c(c1)[C@]1(C[C@H]1c1ccc3c(/C=C/c4ccc(CN5C[C@@H](C)O[C@@H](C)C5)cc4)n[nH]c3c1)C(=O)N2C |  | 10000 nM |  |  | 21 nM | Not Active | 15 nM |  | 50000 nM | > 1000 nM |  | 760 nM |  |  | 6800 ng·h/mL | 440 nM | 29 nM | Not Active | 3400 ng/mL | > 30000 nM | half-life ([7]; microsomes): 10 min; IC50 [18]: 5.7 nM; half-life ([12]; microsomes): 18 min; half-life ([13]; microsomes): > 60 min; half-life ([14]; microsomes): > 60 min
CC(C)N1CCC(Oc2ccc(/C=C/c3n[nH]c4cc([C@@H]5C[C@@]56C(=O)Nc5ccccc56)ccc34)cc2)CC1 |  | > 1000 nM |  |  | 67 nM | Not Active | 7 nM | 30 min | 1600 nM | 1600 nM | > 60 min | 1900 nM | > 60 min | > 60 min | 1400 ng·h/mL | 2400 nM | 5 nM | Not Active | 510 ng/mL | 4100 nM | IC50 [18]: 1.5 nM

The next lines start with results.

half-life [1] | IC50 (Cytochrome P450 3A4 [2]) | bioavailability [3] | clearance (Canis familiaris) | GI50 (MCF7; Homo sapiens, MCF7, 120 h) | inhibition (INH) (Cytochrome P450 1A2) | GI50 (HCC1954; Homo sapiens, HCC1954, 120 h) | half-life ([7]; liver microsomes) | GI50 (MDA-MB-231; [19]) | IC50 (Cytochrome P450 3A4 [10]) | half-life ([12]; liver microsomes) | IC50 (Cytochrome P450 2C19) | half-life ([13]; liver microsomes) | half-life ([14]; liver microsomes) | AUC [15] | IC50 (Cytochrome P450 2C9) | GI50 (MDA-MB-468; [20]) | inhibition (INH) (Cytochrome P450 2D6) | Cmax [16] | SMILES | GI50 at 120 h [11] | also measured
192 min | 6300 nM | 9.7% | 33.3 mL/min/kg | 800 nM | Not Active | < 1 nM | 15 min | 5000 nM | 2700 nM | 7.3 min | 800 nM | 45 min | 4.7 min | 10000 ng·h/mL | 700 nM | 4.2 nM | Not Active | 3500 ng/mL | O=C1Nc2ccccc2[C@]12C[C@H]2c1ccc2c(/C=C/c3ccc(CN4CCOCC4)cc3)n[nH]c2c1 | 50000 nM | clearance (Rattus norvegicus): 53.3 mL/min/kg; AUC(0-inf) [4]: 312 ng·h/mL; AUC(0-inf) [5]: 478 ng·h/mL; AUC(0-inf) [6]: 515 ng·h/mL; AUC(0-inf) [8]: 250 ng·h/mL; half-life [9]: 84 min; bioavailability [17]: 31%
 | 450 nM |  |  | 50 nM | Not Active | 10 nM |  | 1000 nM | 11000 nM |  | 900 nM |  |  | 16000 ng·h/mL | 440 nM | 10 nM | Not Active | 3300 ng/mL | COc1ccc2c(c1)[C@]1(C[C@H]1c1ccc3c(/C=C/c4ccc([C@H](C)N5CCOCC5)cc4)n[nH]c3c1)C(=O)N2C | 9600 nM | half-life ([7]; microsomes): 7.2 min; IC50 [18]: 1.5 nM; half-life ([12]; microsomes): 10 min; half-life ([13]; microsomes): 53 min; half-life ([14]; microsomes): 6.8 min
420 min |  | 29% | 23.3 mL/min/kg | < 10 nM | Not Active | < 10 nM | 13 min | 22000 nM |  | 9 min | 1200 nM | 56 min | 9.5 min | 5500 ng·h/mL | 1000 nM | 13 nM | Not Active | 2100 ng/mL | Cc1ccc2c(c1)[C@]1(C[C@H]1c1ccc3c(/C=C/c4ccc(CN5CCOCC5)cc4)n[nH]c3c1)C(=O)N2 | 9300 nM | clearance (Rattus norvegicus): 58.3 mL/min/kg; AUC(0-inf) [4]: 285 ng·h/mL; AUC(0-inf) [5]: 410 ng·h/mL; AUC(0-inf) [6]: 795 ng·h/mL; AUC(0-inf) [8]: 1140 ng·h/mL; half-life [9]: 96 min; bioavailability [17]: 28%
52.2 min | 2400 nM | 71% | 41.7 mL/min/kg |  | Not Active |  | 12 min |  | 6400 nM | 8.3 min | 1200 nM | 41 min | 9.4 min | 9500 ng·h/mL | 800 nM |  | Not Active | 3500 ng/mL | COc1ccc2c(c1)[C@]1(C[C@H]1c1ccc3c(/C=C/c4ccc(CN5CCOCC5)cc4)n[nH]c3c1)C(=O)N2 | > 50000 nM | clearance (Rattus norvegicus): 66.7 mL/min/kg; GI50 (MCF7): 0.1 nM; AUC(0-inf) [4]: 250 ng·h/mL; AUC(0-inf) [5]: 272 ng·h/mL; GI50 (HCC1954): 250 nM; AUC(0-inf) [6]: 402 ng·h/mL; GI50 (MDA-MB-231): < 1 nM; AUC(0-inf) [8]: 1420 ng·h/mL; half-life [9]: 66 min; GI50 (MDA-MB-468): < 0.1 nM; bioavailability [17]: 22%
